Data: patent publication US8022072B2, “Azolylmethylidenehydrazine derivative and use thereof” (Kaken Pharmaceutical Co., Ltd., priority 2007, dated 2011)
Values after ≈ are worked out from the molar mass of the structure shown.

Key:
Type in all cases: cell-based
[1] = test system: Trichophyton mentagrophytes SM-110; experiment: Antifungal activity evaluation test, MIC, Trichophyton mentagrophytes SM-110; conditions: SM110, 168 h, Sabouraud Dextrose Broth, 30° C., 7 days, visual, read-out: MIC T. men. SM-110
Method: (§1) The minimum inhibitory concentration (MIC) for Trichophyton mentagrophytes, Trichophyton rubrum, and Malassezia furfur was measured according to the following procedure. • Test compound solution: A test compound was dissolved in dimethyl sulfoxide (DMSO) at a concentration of 5 mg/mL as a stock solution. […] Then, as a test medium, a fungal solution of Trichophyton species was 100-fold diluted with Sabouraud Dextrose Broth (Difco), and a fungal solution of Malassezia furfur IFO-0656 was 100-fold diluted with MU medium to give each inoculum (2×10^4 cells/mL). • Measurement of MIC of Trichophyton fungi: Sabouraud Dextrose Broth (Difco) was dispensed by 100 μL to a given well of a 96 well flat microplate. Then, a test compound solution (2 μL) was added, and the mixture was thoroughly mixed with a plate mixer. A fungal solution (100 μL) was inoculated and cultured at 30° C. for 7 days. The presence or absence of the cell growth was visually observed, and the minimum medicament concentration at which the cell growth was prevented was taken as MIC (μg/mL). • Measurement of MIC of Malassezia furfur: Since the urease activity of this fungus and the fungus growth rate are co-related, MIC was evaluated by the following method using urease activity as an index. MU medium was dispensed by 100 μL to a given well of a 96 well flat microplate. Then, a test compound solution (2 μL) was added, and the mixture was thoroughly mixed with a plate mixer. A fungal solution (100 μL) was inoculated and cultured at 30° C. The culture was stopped on day 4 or 5 of culture when the color tone of the MU medium changes from yellow to red in visual observation of the fungus growth in a well free of addition of a test substance. Then the plate was stirred until the fungus became uniform, and the urease activity was measured based on the measurement of absorbance at 550 nm using a plate reader.

[2] = test system: Trichophyton rubrum KD-101; experiment: Antifungal activity evaluation test, MIC, Trichophyton rubrum KD-101; conditions: KD101, 168 h, Sabouraud Dextrose Broth, 30° C., 7 days, visual, read-out: MIC T. rub. KD-101
Method: as §1

[3] = test system: Malassezia furfur IFO-0656; experiment: Antifungal activity evaluation test, MIC by urease activity, Malassezia furfur IFO-0656; conditions: IFO0656, 96 h, MU medium, 30° C., day 4 or 5, urease activity of 20% or below, read-out: MIC M. fur. IFO-0656
Method: as §1

[4] = test system: Trichophyton rubrum KD-107; experiment: Antifungal activity evaluation test, MIC, Trichophyton rubrum KD-107; conditions: KD107, 168 h, Sabouraud Dextrose Broth, 30° C., 7 days, visual, read-out: MIC T. rub. KD-107
Method: as §1

[5] = test system: Trichophyton mentagrophytes KD-04; experiment: Antifungal activity evaluation test, MIC, Trichophyton mentagrophytes KD-04; conditions: KD04, 168 h, Sabouraud Dextrose Broth, 30° C., 7 days, visual, read-out: MIC T. men. KD-04
Method: as §1

Row | Compound | MIC [1] [µg/mL] | MIC [2] [µg/mL] | MIC [3] [µg/mL] | MIC [4] [µg/mL] | MIC [5] [µg/mL]
1 | CC(C)Oc1ccccc1C(=NN(C)C)n1ccnc1 [Compound No. 19, N′-[1-imidazol-1-yl-1-(2-isopropoxyphenyl)methylidene]-N,N-dimethylhydrazine] | 0.2 (≈ 0.734 µM) | 0.78 (≈ 2.86 µM) | 25 (≈ 91.8 µM) | 0.2 (≈ 0.734 µM) | 0.2 (≈ 0.734 µM)
2 | CCCCCOc1ccc(F)cc1C(=NN(C)C)n1ccnc1 [Compound No. 25, N′-[1-(3-fluoro-6-pentyloxyphenyl)-1-imidazol-1-ylmethylidene]-N,N-dimethylhydrazine] | 0.1 (≈ 0.314 µM) | 0.05 (≈ 0.157 µM) | 0.39 (≈ 1.22 µM) | 0.05 (≈ 0.157 µM) | 0.05 (≈ 0.157 µM)
3 | CN(C)N=C(c1ccccc1OCc1ccccc1)n1ccnc1 [Compound No. 34, N′-[1-(2-benzyloxyphenyl)-1-imidazol-1-ylmethylidene]-N,N-dimethylhydrazine] | 0.2 (≈ 0.624 µM) | 0.2 (≈ 0.624 µM) | 0.62 (≈ 1.94 µM) | 0.1 (≈ 0.312 µM) | 0.2 (≈ 0.624 µM)
4 | COc1cccc(COc2ccccc2C(=NN(C)C)n2ccnc2)c1 [Compound No. 53, N′-[1-imidazol-1-yl-1-[2-(3-methoxybenzyloxy)phenyl]methylidene]-N,N-dimethylhydrazine] | 0.39 (≈ 1.11 µM) | 0.2 (≈ 0.571 µM) | 0.78 (≈ 2.23 µM) | 0.1 (≈ 0.285 µM) | 0.2 (≈ 0.571 µM)
5 | CSc1ccccc1C(=NN(C)C)n1ccnc1 [Compound No. 79, N′-[1-imidazol-1-yl-1-(2-methylthiophenyl)methylidene]-N,N-dimethylhydrazine] | 0.39 (≈ 1.5 µM) | 0.39 (≈ 1.5 µM) | > 25 | 0.39 (≈ 1.5 µM) | 0.39 (≈ 1.5 µM)
6 | CCCCCN(C)c1ccccc1C(=NN(C)C)n1ccnc1 [Compound No. 87, N′-[1-imidazol-1-yl-1-[2-(N-methyl-N-pentylamino)phenyl]methylidene]-N,N-dimethylhydrazine] | 0.1 (≈ 0.319 µM) | 0.05 (≈ 0.16 µM) | 0.78 (≈ 2.49 µM) | 0.05 (≈ 0.16 µM) | 0.05 (≈ 0.16 µM)
7 | CCCCCOc1ccc2ccccc2c1C(=NN(C)C)n1ccnc1 [Compound No. 93, N′-[1-imidazol-1-yl-1-(2-pentyloxynaphthalen-1-yl)methylidene]-N,N-dimethylhydrazine] | 0.39 (≈ 1.11 µM) | 0.1 (≈ 0.285 µM) | 6.25 (≈ 17.8 µM) | 0.1 (≈ 0.285 µM) | 0.2 (≈ 0.571 µM)
8 | CCCCCOc1cccnc1C(=NN(C)C)n1ccnc1 [Compound No. 95, N′-[1-imidazol-1-yl-1-(3-pentyloxypyridin-2-yl)methylidene]-N,N-dimethylhydrazine] | 3.13 (≈ 10.4 µM) | 1.56 (≈ 5.18 µM) | > 25 | 0.78 (≈ 2.59 µM) | 1.56 (≈ 5.18 µM)
9 | CN(N=C(c1ccccc1Cl)n1ccnc1)c1ccc(Cl)cc1 [Compound No. 141, N-(4-chlorophenyl)-N′-[1-(2-chlorophenyl)-1-imidazol-1-ylmethylidene]-N-methylhydrazine] | 0.39 (≈ 1.13 µM) | 0.39 (≈ 1.13 µM) | > 10 | 0.2 (≈ 0.579 µM) | 0.2 (≈ 0.579 µM)
10 | CCc1ccccc1C(=NN1CCCCCC1)n1ccnc1 [Compound No. 184, [1-(2-ethylphenyl)-1-imidazol-1-ylmethylidene]homopiperidin-1-ylamine] | 0.1 (≈ 0.337 µM) | 0.05 (≈ 0.169 µM) | 1.56 (≈ 5.26 µM) | 0.05 (≈ 0.169 µM) | 0.05 (≈ 0.169 µM)
11 | CC(C)Oc1ccccc1C(=NN1CCCCCC1)n1ccnc1 [Compound No. 198, homopiperidin-1-yl-[1-imidazol-1-yl-1-(2-isopropoxyphenyl)methylidene]amine] | 0.2 (≈ 0.613 µM) | 0.2 (≈ 0.613 µM) | 0.78 (≈ 2.39 µM) | 0.1 (≈ 0.306 µM) | 0.1 (≈ 0.306 µM)
12 | C=CCOc1ccccc1C(=NN1CCCCCC1)n1ccnc1 [Compound No. 200, homopiperidin-1-yl-[1-imidazol-1-yl-1-[2-(2-propenyloxy)phenyl]methylidene]amine] | 0.1 (≈ 0.308 µM) | 0.1 (≈ 0.308 µM) | 0.2 (≈ 0.616 µM) | 0.1 (≈ 0.308 µM) | 0.1 (≈ 0.308 µM)
13 | CCCCCOc1ccc(OC)cc1C(=NN1CCCCCC1)n1ccnc1 [Compound No. 211, homopiperidin-1-yl-[1-imidazol-1-yl-1-(5-methoxy-2-pentyloxyphenyl)methylidene]amine] | 0.39 (≈ 1.01 µM) | 0.2 (≈ 0.52 µM) | 1.56 (≈ 4.06 µM) | 0.1 (≈ 0.26 µM) | 0.2 (≈ 0.52 µM)

Next, values leading:

Row | MIC [1] [µg/mL] | MIC [2] [µg/mL] | MIC [3] [µg/mL] | MIC [4] [µg/mL] | MIC [5] [µg/mL] | Compound
14 | 0.1 (≈ 0.287 µM) | 0.05 (≈ 0.143 µM) | 0.2 (≈ 0.574 µM) | 0.025 (≈ 0.0717 µM) | 0.05 (≈ 0.143 µM) | CN(C)N=C(c1ccccc1OCCCc1ccccc1)n1ccnc1 [Compound No. 61, N′-[1-imidazol-1-yl-1-[2-(3-phenylpropoxy)phenyl]methylidene]-N,N-dimethylhydrazine]
15 | 0.2 (≈ 0.546 µM) | 0.1 (≈ 0.273 µM) | 0.05 (≈ 0.136 µM) | 0.05 (≈ 0.136 µM) | 0.1 (≈ 0.273 µM) | CN(C)N=C(c1ccccc1SCCOc1ccccc1)n1ccnc1 [Compound No. 85, N′-[1-imidazol-1-yl-1-[2-(2-phenoxyethylthio)phenyl]methylidene]-N,N-dimethylhydrazine]
16 | 0.05 (≈ 0.174 µM) | 0.025 (≈ 0.087 µM) | > 25 | 0.025 (≈ 0.087 µM) | 0.025 (≈ 0.087 µM) | CCCCCCn1cccc1C(=NN(C)C)n1ccnc1 [Compound No. 104, N′-[1-(1-hexylpyrrol-2-yl)-1-imidazol-1-ylmethylidene]-N,N-dimethylhydrazine]
17 | 0.2 (≈ 0.522 µM) | 0.1 (≈ 0.261 µM) | 0.39 (≈ 1.02 µM) | 0.05 (≈ 0.131 µM) | 0.1 (≈ 0.261 µM) | CCN(CC)N=C(c1ccccc1OCc1ccc(Cl)cc1)n1ccnc1 [Compound No. 118, N′-[1-[2-(4-chlorobenzyloxy)phenyl]-1-imidazol-1-ylmethylidene]-N,N-diethylhydrazine]
18 | 0.2 (≈ 0.549 µM) | 0.2 (≈ 0.549 µM) | 1.56 (≈ 4.28 µM) | 0.1 (≈ 0.274 µM) | 0.2 (≈ 0.549 µM) | Fc1ccc(COc2ccccc2C(=NN2CCCC2)n2ccnc2)cc1 [Compound No. 158, [1-[2-(4-fluorobenzyloxy)phenyl]-1-imidazol-1-ylmethylidene]pyrrolidin-1-ylamine]
19 | 0.2 (≈ 0.587 µM) | 0.1 (≈ 0.294 µM) | 0.39 (≈ 1.15 µM) | 0.1 (≈ 0.294 µM) | 0.2 (≈ 0.587 µM) | CCCCCOc1ccccc1C(=NN1CCCCC1)n1ccnc1 [Compound No. 173, [1-imidazol-1-yl-1-(2-pentyloxyphenyl)methylidene]piperidin-1-ylamine]
20 | 0.78 (≈ 2.16 µM) | 0.78 (≈ 2.16 µM) | 25 (≈ 69.4 µM) | 0.39 (≈ 1.08 µM) | 0.39 (≈ 1.08 µM) | c1ccc(Oc2ccccc2C(=NN2CCCCCC2)n2ccnc2)cc1 [Compound No. 212, homopiperidin-1-yl-[1-imidazol-1-yl-1-(2-phenoxyphenyl)methylidene]amine]
